The subject of one data set is A. palaestina. The data set is described as follows: Seed germination after gibberellic acid pre-soak. The format is in vivo, Adonis palaestina. On the procedure: Adonis […] populations were evaluated for seed viability and germination. Although seed viability is fair (about 30 to about 70%), germination is very low.
A further data set has as its system Sclerotinia sclerotiorum. The data set is described as follows: Dosage effect of pure cardenolides on pathogen growth (Sclerotinia). The format is cell-based. To be noted: pure cardenolide. The method, then:
Two different cardenolides (cymarin and strophanthidin) were assessed for their dosage effect on pathogen response.

Data set [1] concerns Adonis. To be noted: at high pH.
Description: Container trials were conducted on the effect of sand content and soil pH on metribuzin-associated Adonis mortality.
Data set [2] deals with Weed. The data set is described as follows: Pre-emergence herbicide trial: weed control. The format is in vivo.
A further data set has as its system Adonis seedlings. From the text:
Seedlings emerging from metribuzin-treated soil were sprayed with a grass-specific herbicide [graminicide; (RS)-7-(4,6-dimethoxypyrimidin-2-ylthio)-3-methyl-2-benzofuran-1(3H)-one] at the seed leaf stage; this would normally be expected to “check” the seedlings (i.e.; cause a degree of non-lethal stress) when applied at the usual time (three true leaf stage).

Data set [3] in a line: Rainbow trout feeding trial: astaxanthin levels in fillets before and after freezing and smoking. It is filed as in vivo. The settings on record: rainbow trout, fillet (flesh), oral, Control treatment, averaged over three fillet zones, read-out: HPLC astaxanthin level Average. The method, then:
(§1) Rainbow trout fed synthetic or Adonis-derived astaxanthin in a feeding trial were harvested 63 days after the feeding trial started and the astaxanthin levels were examined spectrophotometrically (Minolta Chroma Meter) and chemically (by HPLC analysis after lipid removal from the flesh extract) before and after freezing (2 months) and smoking. The initial astaxanthin levels in the feed were adjusted to achieve similar levels of pigmentation of the fish before treatments were carried out. Because pigment levels vary along the length of the fish, measurements were carried out at three positions along each fish (head, mid-body and tail).

A further data set has as its system Rainbow trout. Described as above. It is filed as in vivo. To be noted: averaged over three fillet zones. The method, then: as §1
Data set [4] has as its system Weed. The data set is described as follows: Container trials: weed control at reduced metribuzin level. The format is in vivo.
Data set [5] concerns Adonis. The data set is described as follows: Pre-emergence herbicide trial: Adonis seedling establishment. The format is in vivo, Adonis palaestina. The settings on record: for Adonis seedling density: after graminicide stress treatment.
Where [6] appears, read: 25 % manufacturer's recommended rate.
Setting [7] is: 50 % manufacturer's recommended rate.
Setting [8] is: 12.5 % manufacturer's recommended rate.

Each structure is given as a SMILES string. Read-outs that look alike come from different tables or passages of the source. Marks after values point to notes of the source that are not given here.

Turning to `C=C1C[C@]23C[C@@]1(O)CC[C@H]2[C@@]12C=C[C@H](O)[C@@](C)(C(=O)O1)[C@H]2[C@@H]3C(=O)O` [Gibberellic acid, gibberellic acid], the values for the germination entry in the data set on A. palaestina (24-hour incubation with GA in ethanol at room temperature) and in the data set on A. palaestina (pre-soaking seed in 5000 ppm for 24 hours before sowing) were “further improved germination” and 64.7%, respectively. Also, the “% germination” value in the data set on A. palaestina (1000 ppm, pre-soak 24 hours, 4 °C) is given as 4.3%; in the data set on A. palaestina (1000 ppm, pre-soak 24 hours, 16 °C), 8.7%; in the data set with A. palaestina (1000 ppm, pre-soak 48 hours, 4 °C), 13.7%; in the data set on A. palaestina (1000 ppm, pre-soak 48 hours, 16 °C) it was 22.3%; in the data set on A. palaestina (2000 ppm, pre-soak 24 hours, 4 °C), 10.7%; in the data set on A. palaestina (2000 ppm, pre-soak 24 hours, 16 °C) it was 12.6%. For the same molecule, the “% germination” value came to 20.4% in the data set with A. palaestina (2000 ppm, pre-soak 48 hours, 4 °C); 28.7% in the data set on A. palaestina (2000 ppm, pre-soak 48 hours, 16 °C); 21.4% in the data set on A. palaestina (3500 ppm, pre-soak 24 hours, 4 °C); 25.7% in the data set with A. palaestina (3500 ppm, pre-soak 24 hours, 16 °C); 28.7% with A. palaestina (3500 ppm, pre-soak 48 hours, 4 °C); 45.7% in the data set with A. palaestina (3500 ppm, pre-soak 48 hours, 16 °C). Also, the “% germination” value is recorded as 28.0% in the data set on A. palaestina (5000 ppm, pre-soak 24 hours, 4 °C); 34.7% with A. palaestina (5000 ppm, pre-soak 24 hours, 16 °C); 40.3% in the data set on A. palaestina (5000 ppm, pre-soak 48 hours, 4 °C); 64.7% in the data set on A. palaestina (5000 ppm, pre-soak 48 hours, 16 °C).

For the molecule `C[C@]12CC[C@H]3[C@@H](CC[C@]4(O)C[C@@H](O)CC[C@]34C=O)[C@@]1(O)CC[C@@H]2C1=CC(=O)OC1` [strophanthidin], the “growth of Sclerotinia” value with Sclerotinia sclerotiorum is “inhibited”.

Regarding `CCOP(=S)(OCC)Oc1nc(Cl)n(C(C)C)n1` [isazophos, O-(5-Chloro-1-(1-methylethyl)-1H-1,2,4-triazol-3-yl) O,O-diethyl phosphorothioate], in the data set with Adonis [1], the “interaction with metribuzin (Adonis mortality)” value is “negative interaction”.

With `COC(=O)NS(=O)(=O)c1ccc(N)cc1` [Asulox ®, methyl(4-aminophenyl)sulfonylaminoformate], the Weed density in the data set on Weed [2] (setting [6]) was 86 % cover; with Weed [2] (setting [7]), 74 % cover; in the data set on Weed [2] (100 % manufacturer's recommended rate) it was 87 % cover. Also, in the data set with Weed [2] (pre-emergence herbicide), the weed control result is given as “did not achieve much weed control”.

On to `NC(N)=O` [Urea, urea], for which, in the data set with Adonis seedlings (Metribuzin 0 g/ha, −Graminicide, +Urea), the Adonis density is 95 # plants m^−2.

In the case of `CC1=C(/C=C/C(C)=C/C=C/C(C)=C/C=C/C=C(C)/C=C/C=C(C)/C=C/C2=C(C)C(=O)C(O)CC2(C)C)C(C)(C)CC(O)C1=O` (stereo not drawn) [Synthetic, 3,3′-dihydroxy-β,β-carotene-4,4′-dione], the concentration at 63 days in data set [3] worked out at 15100 ng/g. Moreover, the “Spectrophotometric (Hunter a values) Average” value in the data set on Rainbow trout (Control treatment, harvested 63 days) came to 6.5; in the data set on Rainbow trout (Frozen (2 months)) it was 4.2; in the data set on Rainbow trout (Smoked), 5.8. Further, the “HPLC astaxanthin level Average” value came to 11.2 mg/kg fish in the data set with Rainbow trout (Frozen (2 months)) and 14.0 mg/kg fish in the data set with Rainbow trout (Smoked).

In turn, `CSc1nnc(C(C)(C)C)c(=O)n1N` [Metribuzin, 4-amino-6-tert-butyl-4,5-dihydro-3-methlythio-1,2,4-triazin-5-one] displayed a seedling death in the data set on Adonis seedlings (500 g/ha metribuzin, graminicide sprayed at seed leaf stage) of 30%. For the same molecule, the Adonis density in the data set on Adonis seedlings (Metribuzin 250 g/ha, +Graminicide, −Urea) is given as 97 # plants m^−2; in the data set with Adonis seedlings (Metribuzin 250 g/ha, −Graminicide, +Urea) it was 107 # plants m^−2; with Adonis seedlings (Metribuzin 250 g/ha, −Graminicide, −Urea) it was 103 # plants m^−2; with Adonis seedlings (Metribuzin 500 g/ha, +Graminicide, +Urea) it was 94 # plants m^−2; in the data set with Adonis seedlings (Metribuzin 500 g/ha, +Graminicide, −Urea), 65 # plants m^−2; in the data set on Adonis seedlings (Metribuzin 500 g/ha, −Graminicide, +Urea), 104 # plants m^−2. Moreover, the Adonis density with Adonis seedlings (Metribuzin 500 g/ha, −Graminicide, −Urea) is 98 # plants m^−2; with Adonis seedlings (Metribuzin (pre) + 250 (post) g/ha, +Graminicide, +Urea), 107 # plants m^−2; in the data set with Adonis seedlings (Metribuzin (pre) + 250 (post) g/ha, +Graminicide, −Urea), 105 # plants m^−2; with Adonis seedlings (Metribuzin (pre) + 250 (post) g/ha, −Graminicide, +Urea), 102 # plants m^−2; in the data set on Adonis seedlings (Metribuzin (pre) + 250 (post) g/ha, −Graminicide, −Urea) it was 100 # plants m^−2. Moreover, the figures for the weed control entry in the data set on Weed [4] (125 g/ha) and in the data set with Weed [4] (250 g/ha) were “inadequate” and “reasonable weed control”, respectively. In addition, the Weed density in the data set on Weed [2] (setting [8]) amounted to 85 % cover; in the data set with Weed [2] (setting [6]), 79 % cover; with Weed [2] (setting [7]), 56 % cover. The Adonis seedling density in the data set on Adonis [5] (setting [8]) came to 12.1 m^−2; in the data set with Adonis [5] (setting [6]) it was 5.9 m^−2; with Adonis [5] (setting [7]) it was 1.2 m^−2. Moreover, the “safety on Adonis” value with Adonis [5] (pre-emergence herbicide) is given as “could be used safely on Adonis”.

For the molecule `CO[C@H]1C[C@H](O[C@H]2CC[C@]3(C=O)[C@H]4CC[C@]5(C)[C@@H](C6=CC(=O)OC6)CC[C@]5(O)[C@@H]4CC[C@]3(O)C2)O[C@H](C)[C@H]1O` [cymarin], in the data set with Sclerotinia sclerotiorum, the “growth of Sclerotinia” value is recorded as “inhibited”.

The record behind these values is patent US7595171B2 (Sinotrade Technology Limited, priority 2005, dated 2009).
